Legend:
[1] = brimonidine 0.01-[…] left eye vs tetrahydrozoline 0.05%, oxymetazoline […], naphazoline […] right eye; baseline redness 4/4
Source text: FIG. 4A is a baseline visual appearance of two eyes of a patient with an ocular condition.
In an average clinical situation, baseline redness is at 1-1.5/4.

[2] = FIGS. 5A-C: induction and reversal of rebound hyperemia in a patient's eyes; assay type: in vivo, human; details: brimonidine at […], right eye, after VISINE Original
Source text: FIG. 5A is a baseline visual appearance of two eyes of a patient with an ocular condition.

[3] = 0.03% brimonidine nasal spray, 0.9% saline vehicle, n of 1
[4] = Example 2: Lasik prophylaxis, postoperative hyperemia, hemorrhage and flap dislocation; details: brimonidine 0.02%
[5] = Example 5: chronic red eyes, patient satisfaction assessment, eld brimonidine vs Naphcon-A; assay type: in vivo, human; details: brimonidine at […], drops twice a day for three to five weeks, seven patients, all patients
Experimental: The treatment was through drops twice a day for three to five weeks. At the end, patient satisfaction assessment was conducted.

Brc1c(N=C2NCCN2)ccc2nccnc12.O=C(O)C(O)C(O)C(=O)O [brimonidine, 5-bromo-6-(2-imidazolidinylideneamino)quinoxaline L-tartrate]
scleral whitening brightening effects [1]: significant scleral whitening brightening effects
effect on VISINE Original induced rebound hyperemia [2]: reversing the VISINE Original® induced rebound hyperemia
duration of complete relief of moderate nasal congestion per application [3]: 3 to 5 h
cosmetic appearance vs. no vasoconstrictor and vs. Naphcon-A ([4]; from day 1 after Lasik): much improved
hyperemia in the majority of the 1+ or less hyperemic group ([4]; over 500 eyes): no or only trace hyperemia
patient-reported redness [5]: reduced redness

— US8580787B2, “Compositions and methods for reducing activation of alpha-1 receptors” (Eye Therapies LLC, priority 2008, dated 2013)
